Test results published in patent US9611278B2 (Merck Sharp & Dohme Corp., priority 2013, dated 2017).

Target: T1, sGC α1/β1 heterodimer stably expressed in CHO-K1 cells (CHO-K1/sGC) (Homo sapiens, UniProt Q02108+Q02153)
T1 construct: expressed in transfected cells
T1 sequence (Q02108 1-690): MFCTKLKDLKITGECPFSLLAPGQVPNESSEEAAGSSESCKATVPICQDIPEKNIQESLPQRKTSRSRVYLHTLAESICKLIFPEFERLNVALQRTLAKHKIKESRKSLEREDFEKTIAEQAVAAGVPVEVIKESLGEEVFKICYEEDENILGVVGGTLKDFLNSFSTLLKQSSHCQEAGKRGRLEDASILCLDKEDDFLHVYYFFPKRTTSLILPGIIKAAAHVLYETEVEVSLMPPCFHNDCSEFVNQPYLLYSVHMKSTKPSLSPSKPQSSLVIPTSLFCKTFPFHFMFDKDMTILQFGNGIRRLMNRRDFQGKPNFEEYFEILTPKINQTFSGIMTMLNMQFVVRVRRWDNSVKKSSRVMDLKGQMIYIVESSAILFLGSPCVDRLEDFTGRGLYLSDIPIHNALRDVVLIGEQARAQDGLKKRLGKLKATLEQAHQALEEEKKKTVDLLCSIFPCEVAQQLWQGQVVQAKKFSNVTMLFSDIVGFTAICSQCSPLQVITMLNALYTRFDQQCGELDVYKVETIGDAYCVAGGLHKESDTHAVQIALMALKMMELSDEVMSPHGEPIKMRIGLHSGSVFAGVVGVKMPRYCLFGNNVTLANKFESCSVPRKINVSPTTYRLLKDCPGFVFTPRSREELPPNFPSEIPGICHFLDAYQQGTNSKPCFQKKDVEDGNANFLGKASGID
T1 sequence (Q02153 1-619): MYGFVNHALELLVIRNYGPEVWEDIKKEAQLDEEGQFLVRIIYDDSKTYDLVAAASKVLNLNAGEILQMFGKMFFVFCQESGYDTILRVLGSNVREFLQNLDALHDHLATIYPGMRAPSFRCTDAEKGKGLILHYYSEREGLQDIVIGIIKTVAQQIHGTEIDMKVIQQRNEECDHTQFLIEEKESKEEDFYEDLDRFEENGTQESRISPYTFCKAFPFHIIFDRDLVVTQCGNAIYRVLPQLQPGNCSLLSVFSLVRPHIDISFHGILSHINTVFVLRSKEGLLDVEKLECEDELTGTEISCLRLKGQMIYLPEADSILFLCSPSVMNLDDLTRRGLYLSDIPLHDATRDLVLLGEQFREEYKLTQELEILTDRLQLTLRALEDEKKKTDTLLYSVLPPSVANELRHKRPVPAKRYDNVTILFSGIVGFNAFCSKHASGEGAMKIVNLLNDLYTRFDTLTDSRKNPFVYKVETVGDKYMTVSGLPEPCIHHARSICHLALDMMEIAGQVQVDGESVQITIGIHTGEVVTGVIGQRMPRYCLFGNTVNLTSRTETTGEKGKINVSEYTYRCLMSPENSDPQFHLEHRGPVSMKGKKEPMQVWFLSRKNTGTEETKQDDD
Assay: Cell-based sGC Functional Assay (CASA Assay)
Conditions: for Emax: CHO-K1, activation as percentage of maximum cGMP production of Compound A (set to 100%), read-out: % Act.; for EC50: inflection point of cGMP generation in CHO-K1/sGC cells, 4P fit, 1 hr at 37° C., read-out: IP
Summary of the method: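 CHO-K1 cells stably expressing human sGC α1/β1 were incubated with compound for 1 h at 37 °C in buffer with 0.5 mM IBMX and 2.5% DMSO, with or without 1 μM DETA-NO. Intracellular cGMP was read by HTRF and expressed as percentage of maximal activation by reference activator Compound A. Values came from a 4-parameter fit.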

With `Cn1ncc2c(-c3nc(N)c4c(n3)NC(=O)C4(C)c3ccc(F)cn3)nc(CCC3CCC3)nc21` (stereo not shown) [Example 30, 4-Amino-2-(6-(2-cyclobutylethyl)-1-methyl-1H-pyrazolo[3,4-d]pyrimidin-4-yl)-5-(5-fluoropyridin-2-yl)-5-methyl-5,7-dihydro-6H-pyrrolo[2,3-d]pyrimidin-6-one] the Emax was 98% and the EC50 was 35 nM.
For `Cn1ncc2c(-c3nc(N)c4c(n3)NC(=O)C4(c3ccc(Cl)cn3)C3CC3)nc(CC3CC(F)(F)C3)nc21` (stereo not shown) [Example 31, 4-Amino-5-(5-chloropyridin-2-yl)-5-cyclopropyl-2-(6-((3,3-difluorocyclobutyl)methyl)-1-methyl-1H-pyrazolo[3,4-d]pyrimidin-4-yl)-5,7-dihydro-6H-pyrrolo[2,3-d]pyrimidin-6-one], the Emax was 169% and the EC50 was 44 nM.
Molecule `Cn1ncc2c(-c3nc(N)c4c(n3)NC(=O)C4(c3ccc(C(F)(F)F)cn3)C3CC3)nc(CC3CC(F)(F)C3)nc21` (stereo not shown) [Example 32, 4-Amino-5-cyclopropyl-2-(6-((3,3-difluorocyclobutyl)methyl)-1-methyl-1H-pyrazolo[3,4-d]pyrimidin-4-yl)-5-(5-(trifluoromethyl)pyridin-2-yl)-5,7-dihydro-6H-pyrrolo[2,3-d]pyrimidin-6-one] has an Emax of 113% and an EC50 of 59 nM.
In the case of `COc1ccc(C2(C)C(=O)Nc3nc(-c4nc(CC5CC(F)(F)C5)nc5c4cnn5C)nc(N)c32)nc1` (stereo not shown) [Example 33, 4-Amino-2-(6-((3,3-difluorocyclobutyl)methyl)-1-methyl-1H-pyrazolo[3,4-d]pyrimidin-4-yl)-5-(5-methoxypyridin-2-yl)-5-methyl-5,7-dihydro-6H-pyrrolo[2,3-d]pyrimidin-6-one], the Emax is reported as 104% and the EC50 is reported as 32 nM.
`CCCCc1nc(-c2nc(N)c3c(n2)NC(=O)C3(C)c2ccc(F)cn2)c2cnn(C)c2n1` (stereo not shown) [Example 34, 4-Amino-2-(6-butyl-1-methyl-1H-pyrazolo[3,4-d]pyrimidin-4-yl)-5-(5-fluoropyridin-2-yl)-5-methyl-5,7-dihydro-6H-pyrrolo[2,3-d]pyrimidin-6-one] was tested, and the Emax was 109% and the EC50 was 44 nM.
Work on `CCCCc1nc(-c2nc(N)c3c(n2)NC(=O)C3(C)c2ccc(C(C)C)cn2)c2cnn(C)c2n1` (stereo not shown) [Example 35, 4-Amino-2-(6-butyl-1-methyl-1H-pyrazolo[3,4-d]pyrimidin-4-yl)-5-(5-isopropylpyridin-2-yl)-5-methyl-5,7-dihydro-6H-pyrrolo[2,3-d]pyrimidin-6-one] yielded an Emax of 88% and an EC50 of 96 nM.
`Cn1ncc2c(-c3nc(N)c4c(n3)NC(=O)C4(C)c3ccc(Cl)cn3)nc(CC3CC(F)(F)C3)nc21` (stereo not shown) [Example 37, 4-Amino-5-(5-chloropyridin-2-yl)-2-(6-((3,3-difluorocyclobutyl)methyl)-1-methyl-1H-pyrazolo[3,4-d]pyrimidin-4-yl)-5-methyl-5,7-dihydro-6H-pyrrolo[2,3-d]pyrimidin-6-one] showed an Emax of 192% and an EC50 of 41 nM.
`[2H]C([2H])([2H])n1ncc2c(-c3nc(N)c4c(n3)NC(=O)C4(C)c3nnc(C4CC4)o3)nc(CCC(F)(F)C(F)(F)F)nc21` (stereo not shown) [Example 39, 4-Amino-5-(5-cyclopropyl-1,3,4-oxadiazol-2-yl)-5-methyl-2-(1-(methyl-d3)-6-(3,3,4,4,4-pentafluorobutyl)-1H-pyrazolo[3,4-d]pyrimidin-4-yl)-5,7-dihydro-6H-pyrrolo[2,3-d]pyrimidin-6-one] showed an Emax of 115% and an EC50 of 150 nM.
In the case of `[2H]C([2H])([2H])n1ncc2c(-c3nc(N)c4c(n3)NC(=O)C4(CC)c3nnc(C4CC4)o3)nc(CCC(F)(F)C(F)(F)F)nc21` (stereo not shown) [Example 42, 4-Amino-5-(5-cyclopropyl-1,3,4-oxadiazol-2-yl)-5-ethyl-2-(1-(methyl-d3)-6-(3,3,4,4,4-pentafluorobutyl)-1H-pyrazolo[3,4-d]pyrimidin-4-yl)-5,7-dihydro-6H-pyrrolo[2,3-d]pyrimidin-6-one], the Emax is reported as 120% and the EC50 is reported as 887 nM.
Work on `[2H]C([2H])([2H])n1ncc2c(-c3nc(N)c4c(n3)NC(=O)C4(c3nnc(C4CC4)o3)C3CC3)nc(CCCC(F)(F)F)nc21` (stereo not shown) [Example 43, 4-Amino-5-cyclopropyl-5-(5-cyclopropyl-1,3,4-oxadiazol-2-yl)-2-(1-(methyl-d3)-6-(4,4,4-trifluorobutyl)-1H-pyrazolo[3,4-d]pyrimidin-4-yl)-5,7-dihydro-6H-pyrrolo[2,3-d]pyrimidin-6-one] yielded an Emax of 143% and an EC50 of 825 nM.
Molecule `CCn1ncc2c(-c3nc(N)c4c(n3)NC(=O)C4(c3nnc(C4CC4)o3)C3CC3)nc(CCC(F)(F)C(F)(F)F)nc21` (stereo not shown) [Example 45, 4-Amino-5-cyclopropyl-5-(5-cyclopropyl-1,3,4-oxadiazol-2-yl)-2-(1-ethyl-6-(3,3,4,4,4-pentafluorobutyl)-1H-pyrazolo[3,4-d]pyrimidin-4-yl)-5,7-dihydro-6H-pyrrolo[2,3-d]pyrimidin-6-one] has an Emax of 101% and an EC50 of 738 nM.
`[2H]C([2H])([2H])n1ncc2c(-c3nc(N)c4c(n3)NC(=O)C4(c3nnc(C4CCC4)o3)C3CC3)nc(CCC(F)(F)C(F)(F)F)nc21` (stereo not shown) [Example 46, 4-Amino-5-(5-cyclobutyl-1,3,4-oxadiazol-2-yl)-5-cyclopropyl-2-(1-(methyl-d3)-6-(3,3,4,4,4-pentafluorobutyl)-1H-pyrazolo[3,4-d]pyrimidin-4-yl)-5,7-dihydro-6H-pyrrolo[2,3-d]pyrimidin-6-one] showed an Emax of 97% and an EC50 of 258 nM.
`[2H]C([2H])([2H])n1ncc2c(-c3nc(N)c4c(n3)NC(=O)C4(c3nnc(C4CC4)o3)C3CC3)nc(CCC(F)(F)F)nc21` (stereo not shown) [Example 47, 4-Amino-5-cyclopropyl-5-(5-cyclopropyl-1,3,4-oxadiazol-2-yl)-2-(1-(methyl-d3)-6-(3,3,3-trifluoropropyl)-1H-pyrazolo[3,4-d]pyrimidin-4-yl)-5,7-dihydro-6H-pyrrolo[2,3-d]pyrimidin-6-one] gave an Emax of 108% and an EC50 of 2080 nM.
`Cn1ncc2c(-c3nc(N)c4c(n3)NC(=O)C4(c3nnc(C4(C)CC4)o3)C3CC3)nc(CCC(F)(F)C(F)(F)F)nc21` (stereo not shown) [Example 48, 4-Amino-5-cyclopropyl-2-(1-methyl-6-(3,3,4,4,4-pentafluorobutyl)-1H-pyrazolo[3,4-d]pyrimidin-4-yl)-5-(5-(1-methylcyclopropyl)-1,3,4-oxadiazol-2-yl)-5,7-dihydro-6H-pyrrolo[2,3-d]pyrimidin-6-one] was tested, and the Emax was 112% and the EC50 was 399 nM.
`CC(C)c1nnc(C2(C3CC3)C(=O)Nc3nc(-c4nc(CCC(F)(F)C(F)(F)F)nc5c4cnn5C)nc(N)c32)o1` (stereo not shown) [Example 49, 4-Amino-5-cyclopropyl-5-(5-isopropyl-1,3,4-oxadiazol-2-yl)-2-(1-methyl-6-(3,3,4,4,4-pentafluorobutyl)-1H-pyrazolo[3,4-d]pyrimidin-4-yl)-5,7-dihydro-6H-pyrrolo[2,3-d]pyrimidin-6-one] gave an Emax of 113% and an EC50 of 149 nM.
`CC(C)c1nnc(C2(C)C(=O)Nc3nc(-c4nc(CCC(F)(F)C(F)(F)F)nc5c4cnn5C)nc(N)c32)o1` (stereo not shown) [Example 50, 4-Amino-5-(5-isopropyl-1,3,4-oxadiazol-2-yl)-5-methyl-2-(1-methyl-6-(3,3,4,4,4-pentafluorobutyl)-1H-pyrazolo[3,4-d]pyrimidin-4-yl)-5,7-dihydro-6H-pyrrolo[2,3-d]pyrimidin-6-one] gave an Emax of 176% and an EC50 of 84 nM.
`Cn1ncc2c(-c3nc(N)c4c(n3)NC(=O)C4(c3nnc(C4CC4)o3)C3CC3)nc(CC3CC(F)(F)C3)nc21` (stereo not shown) [Example 51, 4-Amino-5-cyclopropyl-5-(5-cyclopropyl-1,3,4-oxadiazol-2-yl)-2-(6-((3,3-difluorocyclobutyl)methyl)-1-methyl-1H-pyrazolo[3,4-d]pyrimidin-4-yl)-5,7-dihydro-6H-pyrrolo[2,3-d]pyrimidin-6-one] showed an Emax of 154% and an EC50 of 119 nM.
